Test results from patent US11419806B2, “Prebiotic oral care methods using a saccharide” (Colgate-Palmolive Company, priority 2013, dated 2022).

Legend:
Format in all cases: cell-based
S sanguinis = assay: Phenotype microarray metabolic activity
Description: (§1) The extent of metabolic activity of the tested bacteria in the presence of the above-mentioned saccharides after 24 hours and 48 hours was investigated through a high throughput phenotype microarray system (PM) for microbial cells (Biolog Inc.). Each PM can contain up to 95 different biochemical compounds (e.g. saccharides) that may act as substrates for bacteria as well as one negative control, not containing the substrates. Microarray plates were used in which the different wells of each plate were pre-loaded (by the manufacturer, Biolog Inc.) with different saccharides to be tested. Each bacterial species was tested using a separate microarray plate. Thus, a single bacterial species was tested with a variety of saccharides on each particular plate. The microarrays are based on redox technology, using cell respiration as a universal reporter. Active cell respiration results in the reduction of a tetrazolium dye and in the formation of a strong color—for example, when using the tetrazolium dye “Biolog Redox Dye Mix D”, the color changes from transparent/colorless to purple when the dye is reduced. The observation of this color change indicates which of the substrates improve the metabolic activity and health of the cells.
(§2) Each bacterial species was collected from blood agar plates (incubated for 48 hours anaerobically at 37° C.) and transferred to an IF-0 Base inoculation fluid (Biolog Inc.), which is a nutritionally poor medium. The resulting cell suspension was adjusted to a transmittance of 42% (relative to the transmittance of the base inoculation fluid with no bacterial species present) at 492 nm using a BioRad SmartSpec 3000 Photometer (the adjustment being effected by adding either further inoculation fluid or further bacteria until the transmittance of 42% was achieved). A 1:5 dilution of this suspension was prepared by mixing 3 mL of the 42% transmittance cell suspension with 15 mL of an inoculation fluid (which inoculation fluid was formed by mixing 11.6 mL sterile water, 62.5 mL IF-0 base inoculation fluid and 0.9 mL of the tetrazolium dye “Biolog Redox Dye mix D”), resulting in a final cell density which was equal to 85% transmittance using a BioRad SmartSpec 3000 Photometer. For each of the saccharides tested, the microarray plate (obtained from the supplier (Biolog Inc.) with saccharides already present in the relevant wells in powder form) was directly inoculated with 100 μL/well of this 85% transmittance cell suspension.
(§3) All plates were incubated in an anaerobic atmosphere at 37° C. Color changes were measured spectrophotometrically at 492 nm (Thermo Scientific Multiskan Ascent) at 24 hrs and 48 hrs using the same plate at both time points. […] After 24 hrs and 48 hrs under continuous shaking in a Multiscan microplate reader, the optical density (OD) of the synthetic medium at 24 hours and 48 hours was measured (using the microplate reader) at a wavelength of 492 nm for each combination of bacterium/saccharide, and for each of their respective controls (i.e. which contained the particular bacterium but no saccharide).
(§4) The experiment was carried out three times for each combination of bacterium with saccharide, with each repeat being carried out on a different day (thus providing three biological replicas). The controls were also carried out three times, as above. The values shown are the average (mean) of the three single values obtained (as detailed above) for each combination of bacterium with saccharide, at 24 hrs and at 48 hrs.

Porphyromonas gingivalis = assay: Phenotype microarray metabolic activity; conditions: P gingivalis
Description: as §1, §2, §3, §4

Streptococcus salivarius = assay: Phenotype microarray metabolic activity; conditions: S salivarius
Description: as §1, §2, §3, §4

Streptococcus mutans = assay: Phenotype microarray metabolic activity; conditions: S mutans
Description: as §1, §2, §3, §4

Actinomyces naeslundii = assay: Phenotype microarray metabolic activity; conditions: A naeslundii
Description: as §1, §2, §3, §4

Streptococcus sobrinus = assay: Phenotype microarray metabolic activity; conditions: S sobrinus
Description: as §1, §2, §3, §4

Tannerella forsythia = assay: Phenotype microarray metabolic activity; conditions: T forsythia
Description: as §1, §2, §3, §4

[1] = system: Aggregatibacter actinomycetemcomitans; assay: Phenotype microarray metabolic activity; conditions: A actinomycetemcomitans
Description: as §1, §2, §3, §4

Streptococcus mitis = assay: Phenotype microarray metabolic activity; conditions: S mitis
Description: as §1, §2, §3, §4

Veillonella parvula = assay: Phenotype microarray metabolic activity; conditions: V parvula
Description: as §1, §2, §3, §4

Streptococcus gordonii = assay: Phenotype microarray metabolic activity; conditions: S gordonii
Description: as §1, §2, §3, §4

Capnocytophaga sputigena = assay: Phenotype microarray metabolic activity; conditions: C sputigena
Description: as §1, §2, §3, §4

Prevotella intermedia = assay: Phenotype microarray metabolic activity; conditions: P intermedia
Description: as §1, §2, §3, §4

Actinomyces viscosus = assay: Phenotype microarray metabolic activity; conditions: A viscosus
Description: as §1, §2, §3, §4

Fusobacterium nucleatum = assay: Phenotype microarray metabolic activity; conditions: F nucleatum
Description: as §1, §2, §3, §4

[2] = system: beneficial oral bacteria and pathogenic oral bacteria; assay: Microarray screen, overall prebiotic assessment; conditions: 48 hrs
Description: Substrates that were able to increase the metabolic activity of at least one of the above beneficial bacteria while not or only minimally increasing the growth of the pathogenic bacteria are considered to be prebiotic substrates.
as §1, §2, §3, §4
This value was selected in order to exclude low-stimulating metabolites and avoid false positive results.

`OC[C@H]1O[C@@](CO)(O[C@H]2O[C@H](CO)[C@@H](O)[C@H](O)[C@H]2O)[C@@H](O[C@H]2O[C@H](CO)[C@@H](O)[C@H](O)[C@H]2O)[C@@H]1O` [D-Melezitose, (2R,3R,4S,5S,6R)-2-[[(2S,3S,4R,5R)-4-hydroxy-2,5-bis(hydroxymethyl)-3-[[(2R,3R,4S,5S,6R)-3,4,5-trihydroxy-6-(hydroxymethyl)-2-tetrahydropyranyl]oxy]-2-tetrahydrofuranyl]oxy]-6-(hydroxymethyl)tetrahydropyran-3,4,5-triol] was tested, and the “metabolic activity: OD 492 nm divided by OD of control (control = 1)” value (“metabolic activity: OD 492 nm divided” below) (S sanguinis; 24 hrs) was 1.0227, the “metabolic activity: OD 492 nm divided” value (S sanguinis; 48 hrs) was 1.0532 and the “metabolic activity: OD 492 nm divided” value (Porphyromonas gingivalis; 24 hrs) was 0.7783. The “metabolic activity: OD 492 nm divided” value (Porphyromonas gingivalis; 48 hrs) was 0.7811, the “metabolic activity: OD 492 nm divided” value (Streptococcus salivarius; 24 hrs) was 1.0195 and the “metabolic activity: OD 492 nm divided” value (Streptococcus salivarius; 48 hrs) was 0.9869. The “metabolic activity: OD 492 nm divided” value (Streptococcus mutans; 24 hrs) was 1.0420, the “metabolic activity: OD 492 nm divided” value (Streptococcus mutans; 48 hrs) was 0.9402 and the “metabolic activity: OD 492 nm divided” value (Actinomyces naeslundii; 24 hrs) was 1.5398. The “metabolic activity: OD 492 nm divided” value (Actinomyces naeslundii; 48 hrs) was 2.0357, the “metabolic activity: OD 492 nm divided” value (Streptococcus sobrinus; 24 hrs) was 1.1016 and the “metabolic activity: OD 492 nm divided” value (Streptococcus sobrinus; 48 hrs) was 1.0504. For the same compound, the “metabolic activity: OD 492 nm divided” value (Tannerella forsythia; 24 hrs) was 1.0374, the “metabolic activity: OD 492 nm divided” value (Tannerella forsythia; 48 hrs) was 0.9912 and the “metabolic activity: OD 492 nm divided” value ([1]; 24 hrs) was 0.8425. The “metabolic activity: OD 492 nm divided” value ([1]; 48 hrs) was 0.7710, the “metabolic activity: OD 492 nm divided” value (Streptococcus mitis; 24 hrs) was 1.1736 and the “metabolic activity: OD 492 nm divided” value (Streptococcus mitis; 48 hrs) was 1.0570. The “metabolic activity: OD 492 nm divided” value (Veillonella parvula; 24 hrs) was 0.9056, the “metabolic activity: OD 492 nm divided” value (Veillonella parvula; 48 hrs) was 0.7447 and the “metabolic activity: OD 492 nm divided” value (Streptococcus gordonii; 24 hrs) was 1.0421. For the same compound, the “metabolic activity: OD 492 nm divided” value (Streptococcus gordonii; 48 hrs) was 0.9733, the “metabolic activity: OD 492 nm divided” value (Capnocytophaga sputigena; 24 hrs) was 0.5937 and the “metabolic activity: OD 492 nm divided” value (Capnocytophaga sputigena; 48 hrs) was 0.9124. The “metabolic activity: OD 492 nm divided” value (Prevotella intermedia; 24 hrs) was 1.0189, the “metabolic activity: OD 492 nm divided” value (Prevotella intermedia; 48 hrs) was 0.9864 and the “metabolic activity: OD 492 nm divided” value (Actinomyces viscosus; 24 hrs) was 1.7502. The “metabolic activity: OD 492 nm divided” value (Actinomyces viscosus; 48 hrs) was 2.9576, the “metabolic activity: OD 492 nm divided” value (Fusobacterium nucleatum; 24 hrs) was 0.9719 and the “metabolic activity: OD 492 nm divided” value (Fusobacterium nucleatum; 48 hrs) was 0.8307. For the same compound, the “prebiotic effects (metabolic activity, threshold value 2)” value [2] was “exhibited prebiotic effects”.
